Values quoted from earlier work, collected in patent publication US12582665B2, “Topical composition” (FUTURA MEDICAL DEVELOPMENTS LIMITED, priority 2020, dated 2026).

Columns and labels:
[1] = not given; remark: listed apart in the source

Q: Which “Solubility in propylene glycol” value does the source give for C=C(C)[C@@H]1CCC(C)=C[C@H]1c1c(O)cc(CCCCC)cc1O [CBD, cannabidiol] here?
A: exceeding 10 % w/w

Q: What about the “log P” value [1] of the same compound?
A: ~+6.00
